The supplement of paper PMC10307832

Key:
Assay in all cases: relative viability (nuclei count vs DMSO), 5 days (fraction); higher = more cells survive
ABC-1 = system: ABC-1
Method in brief: (§1)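 Relative viability divides the nuclei count in treated wells by that in vehicle wells. Lung cancer cell lines were seeded in 1536-well plates, dosed by pin tool the next day, and fixed and stained after 5 days in one step with final 0.05% Triton X-100, 1% formaldehyde and 1 ug/ml Hoechst. Dosing was a single drug or a fixed anchor-drug dose plus five library-drug doses (not always all listed) in √10 steps, and values are medians of duplicate plates imaged at 4×.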

NCI-H1792 = system: NCI-H1792
Method in brief: as §1

EPLC-272H = system: EPLC-272H
Method in brief: as §1

NCI-H460 = system: NCI-H460
Method in brief: as §1

NCI-H1651 = system: NCI-H1651
Method in brief: as §1

NCI-H2228 = system: NCI-H2228
Method in brief: as §1

SK-MES-1 = system: SK-MES-1
Method in brief: as §1

NCI-H650 = system: NCI-H650
Method in brief: as §1

NCI-H661 = system: NCI-H661
Method in brief: as §1

HCC-78 = system: HCC-78
Method in brief: as §1

LCLC-97TM1 = system: LCLC-97TM1
Method in brief: as §1

LCLC-103H = system: LCLC-103H
Method in brief: as §1

NCI-H1734 = system: NCI-H1734
Method in brief: as §1

201T = system: 201T
Method in brief: as §1

NCI-H1993 = system: NCI-H1993
Method in brief: as §1

SW 1573 = system: SW 1573
Method in brief: as §1

LOU-NH91 = system: LOU-NH91
Method in brief: as §1

NCI-H1355 = system: NCI-H1355
Method in brief: as §1

NCI-H1793 = system: NCI-H1793
Method in brief: as §1

RERF-LC-KJ = system: RERF-LC-KJ
Method in brief: as §1

NCI-H596 = system: NCI-H596
Method in brief: as §1

PC-3 [JPC-3] = system: PC-3 [JPC-3]
Method in brief: as §1

NCI-H1915 = system: NCI-H1915
Method in brief: as §1

Oc1nc(-c2ccc(C(F)(F)F)cc2)nc2c1CSCC2 [XAV939] + O=C(c1cc(Cc2n[nH]c(=O)c3ccccc23)ccc1F)N1CCN(C(=O)C2CC2)CC1 [Olaparib] (partner 8 µM)
relative viability (ABC-1; first compound 0.253 µM): 0.792 | relative viability (ABC-1; first compound 0.8 µM): 1.25 | relative viability (ABC-1; first compound 2.53 µM): 0.61 | relative viability (NCI-H1792; first compound 0.08 µM): 0.602 | relative viability (NCI-H1792; first compound 0.253 µM): 0.379 | relative viability (NCI-H1792; first compound 0.8 µM): 0.398 | relative viability (NCI-H1792; first compound 2.53 µM): 0.268 | relative viability (EPLC-272H; first compound 0.08 µM): 0.745 | relative viability (EPLC-272H; first compound 0.253 µM): 0.89 | relative viability (EPLC-272H; first compound 0.8 µM): 0.97 | relative viability (EPLC-272H; first compound 2.53 µM): 0.719 | relative viability (NCI-H460; first compound 0.08 µM): 0.58 | relative viability (NCI-H460; first compound 0.253 µM): 0.35 | relative viability (NCI-H460; first compound 0.8 µM): 0.395 | relative viability (NCI-H460; first compound 2.53 µM): 0.271 | relative viability (NCI-H1651; first compound 0.08 µM): 0.181 | relative viability (NCI-H1651; first compound 0.253 µM): 0.19 | relative viability (NCI-H1651; first compound 0.8 µM): 0.205 | relative viability (NCI-H1651; first compound 2.53 µM): 0.196 | relative viability (NCI-H2228; first compound 0.08 µM): 0.945 | relative viability (NCI-H2228; first compound 0.253 µM): 0.562 | relative viability (NCI-H2228; first compound 0.8 µM): 0.65 | relative viability (NCI-H2228; first compound 2.53 µM): 0.608 | relative viability (SK-MES-1; first compound 0.08 µM): 0.664 | relative viability (SK-MES-1; first compound 0.253 µM): 0.605 | relative viability (SK-MES-1; first compound 0.8 µM): 0.621 | relative viability (SK-MES-1; first compound 2.53 µM): 0.465 | relative viability (NCI-H650; first compound 0.08 µM): 0.413 | relative viability (NCI-H650; first compound 0.253 µM): 0.426 | relative viability (NCI-H650; first compound 0.8 µM): 0.47 | relative viability (NCI-H650; first compound 2.53 µM): 0.372 | relative viability (NCI-H661; first compound 0.08 µM): 0.743 | relative viability (NCI-H661; first compound 0.253 µM): 0.655 | relative viability (NCI-H661; first compound 0.8 µM): 0.678 | relative viability (NCI-H661; first compound 2.53 µM): 0.708 | relative viability (HCC-78; first compound 0.08 µM): 0.843 | relative viability (HCC-78; first compound 0.253 µM): 0.821 | relative viability (HCC-78; first compound 0.8 µM): 0.713 | relative viability (HCC-78; first compound 2.53 µM): 0.592 | relative viability (LCLC-97TM1; first compound 0.08 µM): 0.326 | relative viability (LCLC-97TM1; first compound 0.253 µM): 0.425 | relative viability (LCLC-97TM1; first compound 2.53 µM): 0.279 | relative viability (LCLC-103H; first compound 0.08 µM): 0.833 | relative viability (LCLC-103H; first compound 0.253 µM): 0.691 | relative viability (LCLC-103H; first compound 0.8 µM): 0.725 | relative viability (LCLC-103H; first compound 2.53 µM): 0.767 | relative viability (NCI-H1734; first compound 0.08 µM): 0.655 | relative viability (NCI-H1734; first compound 0.253 µM): 0.538 | relative viability (NCI-H1734; first compound 0.8 µM): 0.673 | relative viability (NCI-H1734; first compound 2.53 µM): 0.602 | relative viability (201T; first compound 0.08 µM): 0.855 | relative viability (201T; first compound 0.253 µM): 0.814 | relative viability (201T; first compound 0.8 µM): 0.687 | relative viability (201T; first compound 2.53 µM): 0.745 | relative viability (NCI-H1993; first compound 0.08 µM): 1.01 | relative viability (NCI-H1993; first compound 0.253 µM): 0.87 | relative viability (NCI-H1993; first compound 0.8 µM): 1.1 | relative viability (NCI-H1993; first compound 2.53 µM): 1.16 | relative viability (SW 1573; first compound 0.08 µM): 0.437 | relative viability (SW 1573; first compound 0.253 µM): 0.499 | relative viability (SW 1573; first compound 0.8 µM): 0.485 | relative viability (SW 1573; first compound 2.53 µM): 0.379 | relative viability (LOU-NH91; first compound 0.08 µM): 0.923 | relative viability (LOU-NH91; first compound 0.253 µM): 0.834 | relative viability (LOU-NH91; first compound 0.8 µM): 0.908 | relative viability (LOU-NH91; first compound 2.53 µM): 0.887 | relative viability (NCI-H1355; first compound 0.08 µM): 0.729 | relative viability (NCI-H1355; first compound 0.253 µM): 0.617 | relative viability (NCI-H1355; first compound 0.8 µM): 0.692 | relative viability (NCI-H1355; first compound 2.53 µM): 0.487 | relative viability (NCI-H1793; first compound 0.08 µM): 1.15 | relative viability (NCI-H1793; first compound 0.253 µM): 0.707 | relative viability (NCI-H1793; first compound 0.8 µM): 0.916 | relative viability (NCI-H1793; first compound 2.53 µM): 0.646 | relative viability (RERF-LC-KJ; first compound 0.08 µM): 0.868 | relative viability (RERF-LC-KJ; first compound 0.253 µM): 0.763 | relative viability (RERF-LC-KJ; first compound 0.8 µM): 0.617 | relative viability (RERF-LC-KJ; first compound 2.53 µM): 0.292 | relative viability (NCI-H596; first compound 0.08 µM): 0.769 | relative viability (NCI-H596; first compound 0.253 µM): 0.644 | relative viability (NCI-H596; first compound 0.8 µM): 0.776 | relative viability (NCI-H596; first compound 2.53 µM): 0.556 | relative viability (PC-3 [JPC-3]; first compound 0.253 µM): 0.997 | relative viability (PC-3 [JPC-3]; first compound 0.8 µM): 1.17 | relative viability (PC-3 [JPC-3]; first compound 2.53 µM): 1.06 | relative viability (NCI-H1915; first compound 0.08 µM): 0.247 | relative viability (NCI-H1915; first compound 0.253 µM): 0.256 | relative viability (NCI-H1915; first compound 0.8 µM): 0.239 | relative viability (NCI-H1915; first compound 2.53 µM): 0.275
